Laboratory results as given in patent publication US20080112899A1, “Carboxamides and Their Use” (priority 2004, published 2008).

System: trained panel of 4 to 8 people
Assay: Cooling intensity by isointensity method, trained panel tasting aqueous solutions versus WS 23
Assay type: in vivo, human
Conditions: aqueous solutions tasted, compared to aqueous solution of reference WS 23 at 2 ppm
Protocol: The cooling intensity of the compounds was determined by a trained panel of 4 to 8 people according to the isointensity method as described below.
Aqueous solutions of various concentrations of a chemical compound are prepared and tasted. The cooling intensity of each solution was compared to that of an aqueous solution of the reference compound at 2 ppm, namely N,2,3-trimethyl-2-isopropylbutanamde (WS 23).

Molecule `COc1ccc(NC(=O)C(C)(C(C)C)C(C)C)cc1` [Ex. 2B, N-(4-Methoxyphenyl)2-methyl-2-isopropylisovaleramide] has a rel. cooling intensity of 1.1.
Work on `COc1ccc(NC(=O)C(C)(C(C)C)C(C)C)c(OC)c1` [Ex. 2G] yielded a rel. cooling intensity of 0.9.
For `CC(C)C(C)(C(=O)Nc1ccc2c(c1)OCO2)C(C)C` [Ex. 2H, N-Benzo[1,3]dioxol-5-yl 2-methyl-2-isopropylisovaleramide], the rel. cooling intensity was 0.9.
In the case of `COc1cc(CNC(=O)C(C)(C(C)C)C(C)C)ccc1O` [Ex. 2I, N-Vanillyl 2-methyl-2-isopropylisovaleramide], the rel. cooling intensity is reported as 0.8.
In the case of `COc1ccc(NC(=O)C(C(C)C)C(C)C)cc1` [Ex. 2E, N-(4-Methoxyphenyl)2-isopropylisovaleramide], the rel. cooling intensity is reported as 1.1.
`CC(C)C(C)(C(=O)Nc1ccc(CC#N)cc1)C(C)C` [Ex. 2C, N-(4-Cyanomethyl-phenyl)-2-methyl-2-isopropyl-isovaleramide] gave a rel. cooling intensity of 0.2.
Molecule `CC(C)C(C)(C(=O)Nc1ccc(C#N)cc1)C(C)C` [Ex. 2A, N-(4-Cyanophenyl)2-methyl-2-isopropylisovaleramide] has a rel. cooling intensity of 1.5.
In the case of `CC(C)C(C(=O)Nc1ccc(C#N)cc1)C(C)C` [Ex. 1, N-(4-cyanophenyl) 2-isopropylisovaleramide], the rel. cooling intensity is reported as 1.3.
In the case of `CC(C)C(C(=O)Nc1ccccc1C#N)C(C)C` [Ex. 2F, N-(2-Cyanophenyl)2-isopropylisovaleramide], the rel. cooling intensity is reported as 1.7.
